{"source": "patent US11116851B2", "about": "“Anti-cancer and anti-inflammatory therapeutics and methods thereof” (University of Massachusetts, priority 2015, dated 2021)", "key": {"[1]": {"system": "PC3 cells", "assay": "PC3 cell proliferation with Tet-inducible IBS or DKK3 constructs", "format": "cell-based", "conditions": "limited antibiotic induction of Tet-inducible construct", "description": "The relationship between IBS and the Wnt/β-catenin signaling pathway was defined by cell proliferation, promoter-driven reporter assays, and cell migration analysis. Limited antibiotic induction of Tet-inducible IBS or DKK3 constructs was used to avoid the untoward effects of over-expression. […] (Veeck et al. 2012 Biochim Biophys Acta 1825, 18-28; Hsieh et al. 2004 Oncogene 23, 9183-9189; Abarzua et al 2005 Cancer Res 65, 9617-9622; Edamura et al. 2007 Cancer Gene Ther 14, 765-772.)"}, "[2]": {"molecular_target": "native, unphosphorylated β-catenin (UniProt P35222)", "sequence (P35222 2-781 limits assumed)": "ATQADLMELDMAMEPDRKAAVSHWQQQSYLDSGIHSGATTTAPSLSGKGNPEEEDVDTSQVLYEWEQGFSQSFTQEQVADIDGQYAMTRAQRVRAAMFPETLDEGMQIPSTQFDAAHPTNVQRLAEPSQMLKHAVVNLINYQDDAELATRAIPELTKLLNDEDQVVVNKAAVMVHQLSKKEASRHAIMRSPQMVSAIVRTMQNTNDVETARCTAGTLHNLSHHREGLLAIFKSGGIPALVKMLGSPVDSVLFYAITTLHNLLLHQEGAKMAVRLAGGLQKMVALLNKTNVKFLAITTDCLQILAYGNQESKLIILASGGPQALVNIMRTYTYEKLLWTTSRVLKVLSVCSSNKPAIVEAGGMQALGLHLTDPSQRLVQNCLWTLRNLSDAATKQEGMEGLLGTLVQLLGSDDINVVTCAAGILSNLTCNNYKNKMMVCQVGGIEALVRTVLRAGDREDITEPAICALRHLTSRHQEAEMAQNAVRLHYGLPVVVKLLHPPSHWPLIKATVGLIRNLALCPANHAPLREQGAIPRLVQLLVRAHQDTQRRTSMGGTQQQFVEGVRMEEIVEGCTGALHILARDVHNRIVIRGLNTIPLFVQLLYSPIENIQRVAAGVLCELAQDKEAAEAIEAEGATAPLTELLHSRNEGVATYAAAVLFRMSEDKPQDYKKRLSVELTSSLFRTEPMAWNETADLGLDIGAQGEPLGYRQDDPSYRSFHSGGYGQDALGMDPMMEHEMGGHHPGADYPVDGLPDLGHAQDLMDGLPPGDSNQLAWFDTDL", "assay": "cell-based or functional assay"}, "[3]": {"system": "human ovarian, pancreatic, and colon cancers", "assay": "Tumor growth in tumor bearing PDX-mice", "format": "in vivo, mouse", "description": "(§1) Delivery of this intracellular tumor suppressor to the cytoplasm of the cancer cell is essential to achieve the cancer cell growth arrest and apoptosis. First attempts were made by fusing a variant of the cell penetrating peptide-TAT."}, "[4]": {"conditions": "in vivo", "description": "as §1"}, "[5]": {"system": "PC3 cells", "assay": "PC3 cell proliferation after TAT-fusion protein/peptide", "format": "cell-based", "description": "(§2) Over-expression of DKK3 in cancer cells initiates c-Jun Kinase (JNK) mediated apoptosis. (Abarzua et al. 2005 Cancer Res 65, 9617-9622; Kawasaki et al. 2009 Cancer Gene Ther 16, 65-72.) IBS and the JNK inhibitor, TAT-JBD were introduced into PC3 cells as TAT-fusion protein and peptide, respectively, and cell proliferation was measured after 3 days. […] Pro-apoptotic levels of cleaved Caspase 3 increased in TAT-IBS treated cells and this increase was blocked by inhibition of JNK activity (FIG. 8d). […] (Veeck et al. 2012 Biochim Biophys Acta 1825, 18-28; Abarzua et al. 2005 Cancer Res 65, 9617-9622.)"}, "[6]": {"system": "Cleaved Caspase 3", "assay": "Cleaved Caspase 3 in PC3 cells", "format": "cell-based", "description": "as §2"}, "[7]": {"system": "HEK293 cells", "assay": "Basal and Wnt stimulated proliferation of HEK293 cells", "format": "cell-based", "conditions": "HEK293, highest concentration tested", "description": "The impact of IBS on basal and Wnt stimulated cell proliferation was then examined in immortalized HEK293 cells (FIG. 9a). […] The more robust silencing by TAT-IBS is likely due to the universal delivery of this regulator to the cell monolayer."}, "[8]": {"system": "β-catenin", "assay": "Tcf-luciferase promoter reporter assay", "format": "cell-based", "conditions": "Wnt1 co-transfected cells, treated 24 h", "description": "Primary and downstream promoter-luciferase reporter assays were used to explore the interaction between IBS and β-catenin-driven gene expression. Cells were co-transfected with Wntl and promoter-driven luciferase constructs and treated with TAT-IBS for 24 h. […] The ability of IBS to modulate two downstream β-catenin modulated pathways that reduce cell adhesion (ECad) and promote cell cycle progression (E2F) was also examined. […] Motile MDA-MB-231 cells were used to examine the effect of IBS on β-catenin dependent cell migration. IBS slowed malignant cell migration by >60% (FIG. 9d)."}, "[9]": {"system": "NF-κB (p65)", "assay": "NF-κB (p65)-responsive promoter luciferase reporter in HEK293 cells", "format": "cell-based", "conditions": "HEK293 cells stimulated by Wnt-1 transfection", "description": "(§3) FIG. 23. TAT-IBS antagonizes primary and secondary β-catenin and NF-κB-dependent gene expression. A) TAT-IBS blocks an NF-κB (p65)-responsive promoter driving luciferase reporter in HEK293 cells that was stimulated by Wnt-1 transfection (shaded bars). […] C) (Data previously disclosed in UMMC 12-40PR2). TAT-IBS restores E-Cadherin (CDH1)-promoter activity in Wnt-1 stimulated cells (middle chart). TopFlash and E2F-luciferase reporters are dependent on β-TrCP substrates, β-catenin and E2F, respectively (top and bottom charts). TAT-IBS blocks transcriptional activation by Wnt-1 stimulation of both reporters. DKK3b fused to an N-terminal cell penetrating peptide, a protein construct we refer to as TAT-IBS (a.k.a. cpIBS), regulates the activity of promoter elements that depend upon the nuclear translocation of β-TrCP target substrates (FIG. 23) as determined by promoter-luciferase reporter assays. Wnt-1 stimulates transcription regulated by NF-κB (FIG. 23A), β-catenin, and E2F (FIG. 23 C) transcription factor proteins. TAT-IBS treatment blocks this Wnt-1-induced stimulation. In contrast, Wnt-1 down-regulates transcription from promoter elements of two biomarkers of epithelial cellular differentiation, E-cadherin (FIG. 23C) and Elf3 (FIG. 23B). TAT-IBS treatment blocks Wnt-1-induced repression of these two epithelial gene transcripts."}, "[10]": {"system": "Elf3", "assay": "Elf3-luciferase reporter assay", "format": "cell-based", "conditions": "suppressed by Wnt-1 stimulation", "description": "as §3"}}}
{"substance": "DKK3: secreted glycoprotein product of the DKK3 locus", "values": [{"measurement": "PC3 cell proliferation", "setting": "[1]", "result": "did not alter the rate of PC3 cell proliferation"}]}
{"substance": "TAT-IBS (DKK3b fused to an N-terminal cell penetrating peptide) (from UniProt Q9UBP4 72-350)", "values": [{"measurement": "nuclear β-catenin level in LiCl-stimulated SOAS-2 and HeLa cells (cell fractionation) (fraction of untreated controls)", "setting": "[2]", "result": 0.33}, {"measurement": "total cell content and distribution of β-catenin (nuclear, cytosolic and microfilament fractions)", "setting": "[2]", "result": 3, "unit": "fold"}]}
{"substance": "TAT-IBS: DKK3b fused to an N-terminal cell penetrating peptide; bacterially expressed, unfolded fusion protein", "values": [{"measurement": "tumor necrosis", "setting": "[3]; pancreatic, and colon cancers in PDX-mice", "result": "led to tumor necrosis"}, {"measurement": "growth of human cancers in PDX-mice", "setting": "[3]; pancreatic, and colon cancers, bacterially expressed, unfolded protein", "result": "arrested growth"}, {"measurement": "effects on biology in the mouse", "setting": "[4]", "result": "no effects on any biology in the mouse"}, {"measurement": "loss of the initial cell population", "setting": "[5]; PC3 cells, after 3 days", "result": "> 75", "unit": "%"}, {"measurement": "PC3 cell proliferation", "setting": "[5]; TAT-fusion protein, measured after 3 days", "result": "arrested proliferation"}, {"measurement": "pro-apoptotic levels of cleaved Caspase 3", "setting": "[6]", "result": "increased"}, {"measurement": "Wnt-stimulated cell proliferation", "setting": "[7]", "result": "completely eliminated"}, {"measurement": "basal cell proliferation", "setting": "[7]", "result": "without altering basal cell proliferation"}, {"measurement": "Wnt stimulated Tcf-luciferase expression", "setting": "[8]", "result": "completely arrested"}, {"measurement": "NF-κB (p65)-responsive promoter luciferase reporter", "setting": "[9]", "result": "blocks"}, {"measurement": "transcriptional activity of Elf3-luciferase", "setting": "[10]", "result": "restores transcriptional activity"}]}
